Results from article PMC12736255, “Reinvestigating Pyrrol-2-One-Based Compounds: From Antimicrobial Agents to Promising Antitumor Candidates” (Pharmaceuticals, 2025).

Key:
Assay in all cases: NCI-60 single-dose screen
EKVX = format: cell-based, human; details: Homo sapiens, 10^–5 M, read-out: GI (%)
Source text: (§1) In the next step, all synthesized compounds were electronically submitted and accepted for testing to the National Cancer Institute (NCI) platform, for the single dose (10^−5 M) screening against a panel of 60 human tumor cell lines, representing leukemia, melanoma, and cancers of the lung, colon, central nervous system, ovary, kidney, prostate, and breast. The results are summarized in Table 2, with the best values highlighted in red (Figures S1–S14).

NCI-H226 = format: cell-based, human; details: Homo sapiens; NCI-H226, 10^–5 M; read-out: GI (%)
Source text: as §1

A498 = format: cell-based; details: Homo sapiens; A498, 10^–5 M; read-out: GI (%)
Outline: (§2)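 Each compound is applied at 10^−5 M to human tumor lines of the NCI-60 panel, which spans nine cancer types including melanoma, renal, CNS and ovarian.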

CAKI-1 = format: cell-based; details: Homo sapiens; CAKI-1, 10^–5 M; read-out: GI (%)
Outline: as §2

COLO205 = format: cell-based; details: Homo sapiens, COLO 205; COLO205, 10^–5 M; read-out: GI (%)
Outline: as §2

HCC-2998 = format: cell-based; details: Homo sapiens; HCC-2998, 10^–5 M; read-out: GI (%)
Outline: as §2

KM12 = format: cell-based; details: Homo sapiens; KM12, 10^–5 M; read-out: GI (%)
Outline: as §2

MDA-MB-435 = format: cell-based; details: Homo sapiens; MDA-MB-435, 10^–5 M; read-out: GI (%)
Outline: as §2

OVCAR-5 = format: cell-based; details: Homo sapiens; OVCAR-5, 10^–5 M; read-out: GI (%)
Outline: as §2

OVCAR-8 = format: cell-based; details: Homo sapiens; OVCAR-8, 10^–5 M; read-out: GI (%)
Outline: as §2

PC-3 = format: cell-based; details: Homo sapiens, PC-3, PC-3, 10^–5 M; read-out: GI (%)
Outline: as §2

SK-MEL-5 = format: cell-based; details: Homo sapiens; SK-MEL-5, 10^–5 M; read-out: GI (%)
Outline: as §2

SN12C = format: cell-based; details: Homo sapiens, 10^–5 M, read-out: GI (%)
Outline: as §2

SNB-19 = format: cell-based; details: Homo sapiens; SNB-19, 10^–5 M; read-out: GI (%)
Outline: as §2

BT-549 = format: cell-based, human; details: BT-549, 10^–5 M
Source text: as §1

HOP-62 = format: cell-based, human; details: HOP-62, 10^–5 M
Source text: as §1

MDA-MB-468 = format: cell-based, human; details: MDA-MB-468, 10^–5 M
Source text: as §1

SF-295 = format: cell-based, human; details: SF-295, 10^–5 M
Source text: as §1

U251 = format: cell-based, human; details: U251, 10^–5 M
Source text: as §1

UO-31 = format: cell-based, human; details: UO-31, 10^–5 M
Source text: as §1

| Compound | inhibition at 10 µM (EKVX) [%] | inhibition at 10 µM (NCI-H226) [%] | inhibition at 10 µM (A498) [%] | inhibition at 10 µM (CAKI-1) [%] | inhibition at 10 µM (COLO205) [%] | inhibition at 10 µM (HCC-2998) [%] | inhibition at 10 µM (KM12) [%] | inhibition at 10 µM (MDA-MB-435) [%] | inhibition at 10 µM (OVCAR-5) [%] | inhibition at 10 µM (OVCAR-8) [%] | inhibition at 10 µM (PC-3) [%] | inhibition at 10 µM (SK-MEL-5) [%] | inhibition at 10 µM (SN12C) [%] | inhibition at 10 µM (SNB-19) [%] | GI (%) (BT-549) | GI (%) (HOP-62) | GI (%) (MDA-MB-468) | GI (%) (SF-295) | GI (%) (U251) | GI (%) (UO-31) |
| --- | --- | --- | --- | --- | --- | --- | --- | --- | --- | --- | --- | --- | --- | --- | --- | --- | --- | --- | --- | --- |
| O=C1C(Nc2ccc(I)cc2)=CC(c2ccccc2)N1c1ccc(I)cc1 (stereo not drawn) [3a] | 37 | 4 | 16 | 3 | 0 | 0 | 8 | 0 | 0 | 15 | 0 | 1 | 23 | 8 | – | – | – | – | – | – |
| O=C1C(Nc2ccc(I)cc2)=CC(c2ccc(F)cc2)N1c1ccc(I)cc1 (stereo not drawn) [3b] | 24 | 4 | 21 | 13 | 27 | 0 | 26 | 0 | 0 | 8 | 0 | 5 | 28 | 8 | – | – | – | – | – | – |
| O=C1C(Nc2ccc(I)cc2)=CC(c2ccc(Cl)cc2)N1c1ccc(I)cc1 (stereo not drawn) [3c] | 37 | 62 | 19 | 19 | 0 | 0 | 17 | 0 | 0 | 11 | 1 | 18 | 25 | 7 | – | – | – | – | – | – |
| O=C1C(Nc2ccc(I)cc2)=CC(c2ccc(Br)cc2)N1c1ccc(I)cc1 (stereo not drawn) [3d] | 36 | 17 | 5 | 12 | 0 | 0 | 17 | 0 | 0 | 0 | 0 | 20 | 15 | 6 | – | – | – | – | – | – |
| O=C1C(Nc2ccc(I)cc2)=CC(c2cc(C(F)(F)F)cc(C(F)(F)F)c2)N1c1ccc(I)cc1 (stereo not drawn) [3f] | 35 | 81 | 90 | 32 | 59 | 2 | 13 | 0 | 9 | 26 | 25 | 12 | 61 | 19 | – | – | – | – | – | – |
| COc1ccccc1C1C=C(Nc2ccc(I)cc2)C(=O)N1c1ccc(I)cc1 (stereo not drawn) [3i] | 49 | 36 | 6 | 28 | 0 | 21 | 9 | 0 | 0 | 17 | 15 | 4 | 20 | 0 | 2 | 0 | 43% | 28 | 0 | 27 |
| COc1ccc(C2C=C(Nc3ccc(I)cc3)C(=O)N2c2ccc(I)cc2)cc1OC (stereo not drawn) [3j] | 40 | 0 | 0 | 5 | 9 | 0 | 0 | 0 | 0 | 0 | 0 | 11 | 0 | 0 | 0 | 0 | 22% | 0 | 0 | 0 |
| O=C1C(Nc2ccc(I)cc2)=CC(c2ccco2)N1c1ccc(I)cc1 (stereo not drawn) [3m] | 39 | 22 | 12 | 53 | 8 | 10 | 48 | 84 | 0 | 11 | 28 | 17 | 27 | 8 | 17 | 50 | 100 ^q1% | 63 | 0 | 17 |
| O=C1C(Nc2ccc(I)cc2)=CC(c2ccc3c(c2)OCO3)N1c1ccc(I)cc1 (stereo not drawn) [3n] | 12 | 3 | 16 | 16 | 5 | 6 | 19 | 0 | 0 | 0 | 1 | 1 | 16 | 5 | 3 | 0 | 83% | 9 | 0 | 6 |
